# Reference: ChEMBL document CHEMBL1146166, “Discovery and design of benzimidazolone based inhibitors of p38 MAP kinase” (Bioorg Med Chem Lett, 2006)
# Biological target: Mitogen-activated protein kinase 9 (Homo sapiens, UniProt P45984)
# Assay: Inhibition of Jnk2alpha2
# Details: not given
# Mitogen-activated protein kinase 9, sequence (P45984 whole entry): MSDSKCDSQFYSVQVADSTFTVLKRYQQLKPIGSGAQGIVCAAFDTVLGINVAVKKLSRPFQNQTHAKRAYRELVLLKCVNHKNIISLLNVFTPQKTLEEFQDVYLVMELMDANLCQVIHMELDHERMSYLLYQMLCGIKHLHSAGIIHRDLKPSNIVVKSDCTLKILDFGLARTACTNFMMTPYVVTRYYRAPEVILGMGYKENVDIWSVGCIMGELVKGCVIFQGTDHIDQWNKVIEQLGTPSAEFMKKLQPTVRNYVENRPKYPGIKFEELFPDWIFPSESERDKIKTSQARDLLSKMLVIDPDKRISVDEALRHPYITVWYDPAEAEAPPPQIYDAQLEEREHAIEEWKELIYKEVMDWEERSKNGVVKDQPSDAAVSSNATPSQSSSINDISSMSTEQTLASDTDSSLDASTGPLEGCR
row,IC50 [nM],Structure (SMILES)
1,5500,O=c1[nH]c2cc(Nc3ccc(F)cc3F)ccc2n1CC1CCCCC1

# Tested on: THP-1
# Assay: Inhibition of LPS-stimulated TNFalpha production in THP1 cells
# Assay type: functional, cell-based
# Details: Homo sapiens
row,EC50 [nM],Structure (SMILES)
1,880,O=C(c1ccccc1)c1ccc2c(c1)[nH]c(=O)n2CC1CCCCC1
2,220,O=c1[nH]c2cc(Nc3ccccc3)ccc2n1Cc1c(F)cccc1F
3,> 5000,Cn1c(=O)[nH]c2cc(C(=O)c3ccccc3)ccc21
4,420,O=c1[nH]c2cc(Nc3ccc(F)c(F)c3)ccc2n1CC1CCCCC1
5,190,O=c1[nH]c2cc(Nc3cccc(F)c3)ccc2n1CC1CCCCC1
6,1000,O=C(c1ccccc1)c1ccc2c(c1)[nH]c(=O)n2Cc1ccccc1
7,66,O=c1[nH]c2cc(Nc3ccccc3F)ccc2n1CC1CCCCC1
8,150,O=c1[nH]c2cc(Nc3ccccc3)c(N3CCNCC3)cc2n1CC1CCCCC1
9,> 10000,O=c1[nH]c2cc(Nc3cc(Cl)cc(Cl)c3)ccc2n1CC1CCCCC1
10,64,Cc1ccccc1Nc1ccc2c(c1)[nH]c(=O)n2CC1CCCCC1
11,270,O=c1[nH]c2cc(Nc3ccccc3)ccc2n1CC1CCCCC1
12,1100,O=c1[nH]c2cc(Nc3ccccc3)ccc2n1C1CCNC1 (configuration not stated)
13,3400,CC(C)(CN)n1c(=O)[nH]c2cc(Nc3ccccc3)ccc21
14,46,O=c1[nH]c2cc(Nc3ccc(F)cc3F)ccc2n1CC1CCCCC1
15,> 5000,O=C(c1ccccc1)c1ccc2[nH]c(=O)[nH]c2c1
16,150,CN1CCN(c2cc3c(cc2Nc2ccccc2)[nH]c(=O)n3CC2CCCCC2)CC1
17,2300,O=c1[nH]c2cc(Nc3cccc(C(F)(F)F)c3)ccc2n1CC1CCCCC1
18,150,O=c1[nH]c2cc(Nc3ccccc3)ccc2n1C1CCCC1
19,> 10000,N=C(N)c1ccc(Cn2c(=O)[nH]c3cc(C(=O)c4ccccc4)ccc32)cc1
20,74,O=c1[nH]c2cc(Nc3ccc(F)cc3)ccc2n1CC1CCCCC1
21,250,O=c1[nH]c2cc(Oc3ccccc3)ccc2n1CC1CCCCC1
22,180,Cc1ccccc1Nc1cc2[nH]c(=O)n(CC3CCCCC3)c2cc1N1CCN(C)CC1
23,320,O=c1[nH]c2cc(Nc3ccccc3)ccc2n1Cc1ccccc1
24,74,CC(C)(C)n1c(=O)[nH]c2cc(Nc3ccccc3)ccc21

# Tested on: not listed separately
# Assay: Aqueous solubility at pH 7.4
# Assay type: physicochemical
# Details: not given
row,solubility [µM],Structure (SMILES)
1,0.2,O=c1[nH]c2cc(Nc3ccccc3)ccc2n1CC1CCCCC1
2,5.7,CN1CCN(c2cc3c(cc2Nc2ccccc2)[nH]c(=O)n3CC2CCCCC2)CC1
